The values below come from ChEMBL document CHEMBL4002647, “BMS-933043, a Selective α7 nAChR Partial Agonist for the Treatment of Cognitive Deficits Associated with Schizophrenia” (ACS Med Chem Lett, 2017).

One data set deals with CYP2D6 (Homo sapiens, UniProt P10635). Nature of the data set: Inhibition of recombinant human CYP2D6 using fluorogenic substrate preincubated for 30 mins and measured after 20 to 60 mins in presence of NADPH regenerating system by fluorescence assay. The settings on record: human, recombinant CYP2D6, probe fluorogenic substrate (not named). Format: ADME.
Chain of CYP2D6 (P10635 whole entry): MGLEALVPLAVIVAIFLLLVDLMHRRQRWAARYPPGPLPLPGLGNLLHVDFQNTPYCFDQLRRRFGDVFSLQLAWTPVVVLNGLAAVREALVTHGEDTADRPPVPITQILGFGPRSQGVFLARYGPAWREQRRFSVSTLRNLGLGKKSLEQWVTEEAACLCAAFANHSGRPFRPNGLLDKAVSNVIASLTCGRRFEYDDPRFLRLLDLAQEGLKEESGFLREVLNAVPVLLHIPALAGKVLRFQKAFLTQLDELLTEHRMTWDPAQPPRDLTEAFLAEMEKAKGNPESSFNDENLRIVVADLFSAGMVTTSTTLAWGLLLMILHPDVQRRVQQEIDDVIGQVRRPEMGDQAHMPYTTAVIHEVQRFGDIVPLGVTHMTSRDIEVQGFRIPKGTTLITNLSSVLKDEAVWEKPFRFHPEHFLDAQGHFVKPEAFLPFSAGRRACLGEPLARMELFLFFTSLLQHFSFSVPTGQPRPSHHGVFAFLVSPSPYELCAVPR
For data set [1], the species on record is Canis familiaris. The experiment in a line: […] in dog assessed as increase in alkaline phosphatase level. The class given is toxicity, Canis lupus familiaris. Conditions: in vivo.
Data set [2] has as its target T1, CYP3A4 (Homo sapiens, UniProt P08684). The experiment in a line: Inhibition of recombinant human CYP3A4 using fluorogenic substrate BZR preincubated for 30 mins and measured after 20 to 60 mins in presence of NADPH regenerating system by fluorescence assay. Format: ADME. The settings on record: human, recombinant CYP3A4, probe BZR.
Data set [3] in a line: Fraction unbound in dog plasma at 10 uM after 4 hrs by equilibrium dialysis method. The class given is ADME, cell-free, Canis lupus familiaris. On the technique in general: In equilibrium dialysis free small molecules cross a membrane that holds back macromolecules.
Data set [4] is described as follows: Fraction unbound in mouse plasma at 10 uM after 4 hrs by equilibrium dialysis method. Format: ADME, cell-free.
A further data set has as its target CYP2C19 (Homo sapiens, UniProt P33261). Nature of the data set: Inhibition of recombinant human CYP2C19 using fluorogenic substrate preincubated for 30 mins and measured after 20 to 60 mins in presence of NADPH regenerating system by fluorescence assay. Format: ADME. Conditions: recombinant CYP2C19, probe fluorogenic substrate (not named).
The nature of data set [5]: Metabolic stability in rat liver microsomes assessed as compound remaining at 3 uM after 10 mins by LC-MS/MS analysis. Format: ADME, microsome. The settings on record: read-out: Stability. In general terms: Liver microsomes are vesicles of endoplasmic reticulum, rich in cytochrome P450 enzymes.
The species entered for data set [6] is Canis familiaris. Nature of the data set: […] in dog assessed as increase in ALT level. The class given is toxicity, Canis lupus familiaris. The settings on record: in vivo.
In data set [7] the target is Neuronal acetylcholine receptor; alpha4/beta2 (Rattus norvegicus) (UniProt P09483+P12390). Nature of the data set: Antagonist activity at rat alpha4beta2 nAChR expressed in HEK293 cells assessed as inhibition of acetylcholine-induced increase in Ca2+ flux by Fluo-4 AM dye based FLIPR assay. Format: cell-based.
The species named for data set [8] is Canis familiaris. Nature of the data set: Cardiotoxicity in dog assessed as QT prolongation. The class given is toxicity, Canis lupus familiaris.
The nature of data set [9]: Fraction unbound in monkey plasma at 10 uM after 4 hrs by equilibrium dialysis method. The class given is ADME, cell-free, Macaca mulatta. Conditions: rhesus monkey.
A further data set has as its target CYP1A2 (Homo sapiens, UniProt P05177). Nature of the data set: Inhibition of recombinant human CYP1A2 using fluorogenic substrate preincubated for 30 mins and measured after 20 to 60 mins in presence of NADPH regenerating system by fluorescence assay. The class given is ADME. Conditions: recombinant CYP1A2, probe fluorogenic substrate (not named).
Data set [10] is filed under the species Canis familiaris. Nature of the data set: […] in dog assessed as increase in AST level. Format: toxicity, Canis lupus familiaris. Conditions: in vivo.
Data set [11] in a line: Metabolic stability in dog liver microsomes assessed as compound remaining at 3 uM after 10 mins by LC-MS/MS analysis. The class given is ADME, Canis lupus familiaris, microsome. Conditions: read-out: Stability.
The target in data set [12] is T2, Neuronal acetylcholine receptor subunit alpha-7 (Homo sapiens, UniProt P36544). The experiment in a line: Agonist activity at human alpha7 nAChR expressed in HEK293 cells co-expressing human RIC3 assessed as area under current curve at holding potential of -90 mV by whole-cell voltage clamp electrophysiology method. Format: cell-based.
T2 sequence (P36544 whole entry): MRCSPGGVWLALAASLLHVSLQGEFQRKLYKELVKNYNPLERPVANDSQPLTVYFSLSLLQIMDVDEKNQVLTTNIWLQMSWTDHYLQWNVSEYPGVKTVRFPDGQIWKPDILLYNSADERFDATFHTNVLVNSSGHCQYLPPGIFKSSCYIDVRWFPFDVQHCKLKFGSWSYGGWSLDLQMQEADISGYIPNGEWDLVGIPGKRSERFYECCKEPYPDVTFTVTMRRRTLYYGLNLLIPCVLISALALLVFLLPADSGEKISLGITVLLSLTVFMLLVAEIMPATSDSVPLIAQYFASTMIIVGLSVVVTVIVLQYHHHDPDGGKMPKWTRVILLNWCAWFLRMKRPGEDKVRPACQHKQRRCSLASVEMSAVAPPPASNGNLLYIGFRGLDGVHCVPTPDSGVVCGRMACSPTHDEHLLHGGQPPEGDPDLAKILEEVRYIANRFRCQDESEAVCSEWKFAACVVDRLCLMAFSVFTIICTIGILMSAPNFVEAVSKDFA
In a further data set the target is CYP2C9 (Homo sapiens, UniProt P11712). Nature of the data set: Inhibition of recombinant human CYP2C9 using fluorogenic substrate preincubated for 30 mins and measured after 20 to 60 mins in presence of NADPH regenerating system by fluorescence assay. The class given is ADME. The settings on record: recombinant CYP2C9, probe fluorogenic substrate (not named).
Chain of CYP2C9 (P11712 whole entry): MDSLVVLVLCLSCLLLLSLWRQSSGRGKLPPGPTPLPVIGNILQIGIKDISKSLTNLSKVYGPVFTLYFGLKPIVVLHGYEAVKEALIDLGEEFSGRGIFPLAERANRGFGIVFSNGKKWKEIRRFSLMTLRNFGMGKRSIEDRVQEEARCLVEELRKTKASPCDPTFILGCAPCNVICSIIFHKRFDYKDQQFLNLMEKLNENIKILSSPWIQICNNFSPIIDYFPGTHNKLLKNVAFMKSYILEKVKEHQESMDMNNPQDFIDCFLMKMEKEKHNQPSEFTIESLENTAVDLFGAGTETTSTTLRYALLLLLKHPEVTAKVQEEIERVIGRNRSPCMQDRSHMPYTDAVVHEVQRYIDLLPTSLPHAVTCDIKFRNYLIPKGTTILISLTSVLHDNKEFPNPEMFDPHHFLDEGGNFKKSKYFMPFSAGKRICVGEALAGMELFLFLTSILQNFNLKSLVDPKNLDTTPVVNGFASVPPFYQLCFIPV

The target in data set [13] is T2, Neuronal acetylcholine receptor subunit alpha-7. Nature of the data set: Displacement of [125I]alpha-bungarotoxin from human alpha7 nAChR expressed in HEK293 cell membranes incubated for 2 hrs and measured by gamma counting method. On the technique in general: Loss of bound radioactivity is the signal in a displacement assay; it reports binding, not function.
A short description of data set [14]: Metabolic stability in mouse liver microsomes assessed as compound remaining at 3 uM after 10 mins by LC-MS/MS analysis. The settings on record: read-out: Stability. The class given is ADME, microsome.
Data set [15] is filed under the species Canis familiaris. Nature of the data set: Hepatotoxicity in dog assessed as increase in alkaline phosphatase level. Format: toxicity, Canis lupus familiaris. Conditions: in vivo.
In data set [16] the target is Neuronal acetylcholine receptor; alpha3/beta4 (Rattus norvegicus) (UniProt P04757+P12392). Nature of the data set: Antagonist activity at rat alpha3beta4 nAChR expressed in HEK293 cells assessed as inhibition of acetylcholine-induced increase in Ca2+ flux by Fluo-4 AM dye based FLIPR assay. The class given is cell-based.
The species named for data set [17] is Canis familiaris. Nature of the data set: Hepatotoxicity in dog assessed as increase in ALT level. Format: toxicity, Canis lupus familiaris. The settings on record: in vivo.
Data set [18] can be described thus: Metabolic stability in human liver microsomes assessed as compound remaining at 3 uM after 10 mins by LC-MS/MS analysis. Format: ADME, microsome. Conditions: read-out: Stability.
Data set [19] can be described thus: Fraction unbound in rat plasma at 10 uM after 4 hrs by equilibrium dialysis method. The class given is ADME, cell-free.
A short description of data set [20]: Metabolic stability in monkey liver microsomes assessed as compound remaining at 3 uM after 10 mins by LC-MS/MS analysis. The class given is ADME, Macaca mulatta, microsome. The settings on record: rhesus monkey, read-out: Stability.
Data set [21] addresses T2, Neuronal acetylcholine receptor subunit alpha-7. The experiment in a line: Agonist activity at human alpha7 nAChR expressed in HEK293 cells co-expressing human RIC3 assessed as induction of peak current amplitutde at 10 uM at holding potential of -90 mV by whole-cell voltage clamp electrophysiology method relative to acetylcholine. Format: cell-based.
The next data set has as its target CYP2B6 (Homo sapiens, UniProt P20813). The experiment in a line: Inhibition of recombinant human CYP2B6 using fluorogenic substrate preincubated for 30 mins and measured after 20 to 60 mins in presence of NADPH regenerating system by fluorescence assay. Format: ADME. The settings on record: human, recombinant CYP2B6, probe fluorogenic substrate (not named).
Data set [22] concerns the target Nicotinic acetylcholine receptor alpha-1/beta-1/delta/epsilon (Rattus norvegicus) (UniProt P25109+P25108+P25110+P09660). The experiment in a line: Antagonist activity at rat alpha1beta1delta1epsilon nAChR expressed in HEK293 cells assessed as inhibition of acetylcholine-induced increase in Ca2+ flux by Fluo-4 AM dye based FLIPR assay. Format: cell-based.
A short description of data set [23]: Fraction unbound in human plasma at 10 uM after 4 hrs by equilibrium dialysis method. The class given is ADME, cell-free.
The target of data set [24] is T2, Neuronal acetylcholine receptor subunit alpha-7. Nature of the data set: Agonist activity at human alpha7 nAChR expressed in HEK293 cells co-expressing human RIC3 assessed as area under current curve at 10 uM at holding potential of -90 mV by whole-cell voltage clamp electrophysiology method relative to acetylcholine. The class given is cell-based.
Another data set deals with CYP2C8 (Homo sapiens, UniProt P10632). The experiment in a line: Inhibition of recombinant human CYP2C8 using fluorogenic substrate preincubated for 30 mins and measured after 20 to 60 mins in presence of NADPH regenerating system by fluorescence assay. Format: ADME. Conditions: human, recombinant CYP2C8, probe fluorogenic substrate (not named).
Chain of CYP2C8 (P10632 whole entry): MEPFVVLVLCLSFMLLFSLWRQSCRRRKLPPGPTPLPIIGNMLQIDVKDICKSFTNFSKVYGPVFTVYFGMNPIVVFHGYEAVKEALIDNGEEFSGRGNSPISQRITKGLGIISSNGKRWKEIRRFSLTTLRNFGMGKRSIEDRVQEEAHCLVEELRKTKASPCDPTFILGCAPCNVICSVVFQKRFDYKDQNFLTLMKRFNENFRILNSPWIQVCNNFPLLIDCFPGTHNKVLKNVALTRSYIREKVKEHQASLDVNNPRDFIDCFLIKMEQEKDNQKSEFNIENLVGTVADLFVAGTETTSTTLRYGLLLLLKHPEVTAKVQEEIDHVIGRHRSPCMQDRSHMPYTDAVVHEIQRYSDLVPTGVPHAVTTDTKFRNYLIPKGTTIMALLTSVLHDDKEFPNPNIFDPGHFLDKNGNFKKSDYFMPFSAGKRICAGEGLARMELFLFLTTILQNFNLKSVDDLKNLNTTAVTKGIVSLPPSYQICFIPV
The target of data set [25] is T1, CYP3A4. Nature of the data set: Inhibition of recombinant human CYP3A4 using fluorogenic substrate BFC preincubated for 30 mins and measured after 20 to 60 mins in presence of NADPH regenerating system by fluorescence assay. The class given is ADME. Conditions: human, recombinant CYP3A4, probe BFC.
For data set [26], the species on record is Canis familiaris. Nature of the data set: Hepatotoxicity in dog assessed as increase in AST level. Conditions: in vivo. Format: toxicity, Canis lupus familiaris.
A short description of data set [27]: Drug level treated with (2R)-N-(6-(1H-Imidazol-1-yl)-4-pyrimidinyl)-4'H-spiro[4-azabicyclo[2.2.2]octane-2,5'-[1,3]oxazol]-2'-amine.
For data set [28], the target named is Neuronal acetylcholine receptor subunit alpha-7 (Rattus norvegicus, UniProt Q05941). The experiment in a line: Agonist activity at rat alpha7 nAChR expressed in HEK293 cells assessed as increase in Ca2+ flux by Fluo-4 AM dye based FLIPR assay. The class given is cell-based.
Chain of Neuronal acetylcholine receptor subunit alpha-7 (Rattus norvegicus, UniProt Q05941) (Q05941 whole entry): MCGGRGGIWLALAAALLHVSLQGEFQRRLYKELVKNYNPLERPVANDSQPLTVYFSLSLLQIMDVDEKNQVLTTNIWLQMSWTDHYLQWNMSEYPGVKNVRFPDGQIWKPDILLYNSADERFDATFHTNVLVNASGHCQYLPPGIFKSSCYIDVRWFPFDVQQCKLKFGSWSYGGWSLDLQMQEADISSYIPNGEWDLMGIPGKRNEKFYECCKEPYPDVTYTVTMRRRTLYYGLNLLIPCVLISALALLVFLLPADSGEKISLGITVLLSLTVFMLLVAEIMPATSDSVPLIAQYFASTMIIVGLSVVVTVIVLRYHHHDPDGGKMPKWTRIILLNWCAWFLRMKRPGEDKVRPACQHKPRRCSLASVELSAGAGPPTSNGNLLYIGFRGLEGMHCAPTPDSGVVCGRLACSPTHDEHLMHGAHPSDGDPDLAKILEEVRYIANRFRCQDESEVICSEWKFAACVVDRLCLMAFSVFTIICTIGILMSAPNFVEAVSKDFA

Activity calls are given as the source filed them. No cut-off for these calls is given here.

T1 sequence (P08684 whole entry): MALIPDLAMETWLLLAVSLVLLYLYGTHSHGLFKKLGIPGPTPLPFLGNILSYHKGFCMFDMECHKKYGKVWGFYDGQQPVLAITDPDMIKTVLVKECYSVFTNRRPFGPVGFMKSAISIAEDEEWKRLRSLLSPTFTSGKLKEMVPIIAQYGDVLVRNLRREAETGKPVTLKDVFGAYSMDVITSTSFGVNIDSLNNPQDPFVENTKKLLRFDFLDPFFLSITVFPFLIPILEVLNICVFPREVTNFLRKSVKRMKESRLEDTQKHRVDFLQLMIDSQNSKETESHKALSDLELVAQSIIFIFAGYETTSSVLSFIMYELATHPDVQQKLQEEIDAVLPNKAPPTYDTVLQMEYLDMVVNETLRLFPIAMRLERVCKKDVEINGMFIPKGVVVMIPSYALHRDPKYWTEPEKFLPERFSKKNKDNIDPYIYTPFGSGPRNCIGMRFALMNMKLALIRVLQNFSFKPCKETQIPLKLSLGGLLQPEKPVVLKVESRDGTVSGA
Chain of CYP1A2 (P05177 whole entry): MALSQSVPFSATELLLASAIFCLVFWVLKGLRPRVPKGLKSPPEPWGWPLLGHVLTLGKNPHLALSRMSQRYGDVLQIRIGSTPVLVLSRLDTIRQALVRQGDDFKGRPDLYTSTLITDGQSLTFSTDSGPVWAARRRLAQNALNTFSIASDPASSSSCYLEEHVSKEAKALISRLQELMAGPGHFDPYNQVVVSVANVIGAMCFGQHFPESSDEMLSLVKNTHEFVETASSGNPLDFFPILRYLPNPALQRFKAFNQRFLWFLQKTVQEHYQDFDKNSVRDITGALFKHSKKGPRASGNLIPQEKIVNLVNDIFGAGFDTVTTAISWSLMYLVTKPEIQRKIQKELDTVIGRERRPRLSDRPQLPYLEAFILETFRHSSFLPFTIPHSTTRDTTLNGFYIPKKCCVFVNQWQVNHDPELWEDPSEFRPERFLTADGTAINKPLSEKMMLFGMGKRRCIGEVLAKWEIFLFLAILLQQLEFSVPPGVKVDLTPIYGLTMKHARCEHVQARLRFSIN
Chain of CYP2C19 (P33261 whole entry): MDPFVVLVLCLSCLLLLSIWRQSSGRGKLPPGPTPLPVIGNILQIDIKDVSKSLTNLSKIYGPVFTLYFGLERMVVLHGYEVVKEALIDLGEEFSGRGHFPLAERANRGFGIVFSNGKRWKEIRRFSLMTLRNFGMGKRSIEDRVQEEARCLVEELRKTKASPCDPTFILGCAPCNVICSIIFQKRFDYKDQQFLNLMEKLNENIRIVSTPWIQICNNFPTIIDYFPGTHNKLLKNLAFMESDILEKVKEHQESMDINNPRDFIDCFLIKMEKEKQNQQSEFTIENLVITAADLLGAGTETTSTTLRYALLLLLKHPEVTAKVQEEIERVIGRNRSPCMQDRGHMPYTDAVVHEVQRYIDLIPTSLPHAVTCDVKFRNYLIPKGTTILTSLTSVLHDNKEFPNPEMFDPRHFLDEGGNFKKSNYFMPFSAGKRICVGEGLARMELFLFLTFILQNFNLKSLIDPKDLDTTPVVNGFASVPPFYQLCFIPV
Chain of CYP2B6 (P20813 whole entry): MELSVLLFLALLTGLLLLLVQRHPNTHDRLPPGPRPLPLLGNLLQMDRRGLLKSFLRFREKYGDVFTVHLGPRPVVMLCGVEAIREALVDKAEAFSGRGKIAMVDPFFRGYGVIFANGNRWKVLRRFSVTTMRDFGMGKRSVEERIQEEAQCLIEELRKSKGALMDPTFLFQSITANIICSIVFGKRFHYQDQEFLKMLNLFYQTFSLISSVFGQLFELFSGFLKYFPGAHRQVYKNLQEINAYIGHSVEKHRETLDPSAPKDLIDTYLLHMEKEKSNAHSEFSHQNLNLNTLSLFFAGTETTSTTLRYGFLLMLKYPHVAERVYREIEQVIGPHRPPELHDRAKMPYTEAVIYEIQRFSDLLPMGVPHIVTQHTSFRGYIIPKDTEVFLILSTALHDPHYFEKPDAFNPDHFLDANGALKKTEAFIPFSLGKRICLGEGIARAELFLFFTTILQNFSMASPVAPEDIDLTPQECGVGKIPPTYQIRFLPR

On to `c1ccc2cc(NC3=NC[C@@]4(CN5CCC4CC5)O3)ncc2c1`, for which the IC50 on CYP2D6, at CYP3A4 [2], at CYP2C19, at CYP1A2, at CYP2C9 and at CYP2B6 was > 40 µM throughout. Also, the IC50 at CYP2C8 and on CYP3A4 [25] was > 40 µM throughout. The Activity result in the data set filed under Canis familiaris [1], in the data set listed under Canis familiaris [6], in the data set listed under Canis familiaris [8], in the data set listed under Canis familiaris [10], in the data set filed under Canis familiaris [15] and in the data set listed under Canis familiaris [17] was “Toxic” throughout. Besides, the Activity result in the data set listed under Canis familiaris [26] is “Toxic”. Besides, the fraction unbound at 4 h, 10 µM in [3] stood at 0.44; in [4], 0.23; in [9], 0.35; in [19], 0.27; in [23], 0.25. The remaining at 10 min, 3 µM in data set [5] stood at 1%; in data set [11], 74%; in data set [14], 89%; in data set [18] it was 96%; in data set [20] it was 78%. Besides, the inhibition entry in data set [7], in data set [16] and in [22] was “inactive” each time. Further, the EC50 in [12] came out at 0.24 µM. Further, affinity in [13] was put at a Ki of 0.0013 µM. The %max was determined as 26% in data set [21] and 62% in data set [24].
Regarding `[O-][N+]12CCC(CC1)C1(CN=C(Nc3cc(-n4ccnc4)ncn3)O1)C2` (single isomer, unassigned), the Drug metabolism entry in data set [27] is reported as “Metabolite detected”. The EC50 in data set [28] was > 50 µM.

For orientation: IC50 means the midpoint of a concentration-inhibition curve. As a reminder, the fraction unbound is free concentration divided by total concentration. Broadly, the EC50 is the concentration giving half of the maximal effect. In general, Ki refers to a measure of affinity in units of concentration, obtained from inhibition or displacement.
